# Key:
# [1] = target: T1, Brd4 bromodomain 1 (Homo sapiens, UniProt O60885); assay: Inhibition of tetra-acetylated histone H4 binding to BET bromodomains (TR-FRET); design: key: Active: Compounds with an IC50 value less than 30 μM were deemed to be active.; Not Active: Compounds with an IC50 value less than 30 μM were deemed to be active; conditions: first bromodomain of Brd4, tetra-acetylated histone H4 peptide
# T1 construct: made in house; host or cells: E. coli BL21(DE3)
# Procedure: Proteins were cloned and overexpressed with a N-terminal 6×His tag, then purified by nickel affinity followed by size exclusion chromatography. Briefly, E. coli BL21(DE3) cells were transformed with a recombinant expression vector encoding N-terminally Nickel affinity tagged bromodomains from Brd2, Brd3, Brd4. Cell cultures were incubated at 37° C. with shaking to the appropriate density and induced overnight with IPTG. The supernatant of lysed cells was loaded onto Ni-IDA column for purification. Eluted protein was pooled, concentrated and further purified by size exclusion chromatography. Fractions representing monomeric protein were pooled, concentrated, aliquoted, and frozen at −80° C. for use in subsequent experiments.
# Binding of tetra-acetylated histone H4 and BET bromodomains was confirmed by a Time Resolved Fluorescence Resonance Energy Transfer (TR-FRET) method. N-terminally His-tagged bromodomains (200 nM) and biotinylated tetra-acetylated histone H4 peptide (25-50 nM, Millipore) were incubated in the presence of Europium Cryptate-labeled streptavidin (Cisbio Cat. #610SAKLB) and XL665-labeled monoclonal anti-His antibody (Cisbio Cat. #61HISXLB) in a white 96 well microtiter plate (Greiner). For inhibition assays, serially diluted test compound was added to these reactions in a 0.2% final concentration of DMSO. Final buffer concentrations were 30 mM HEPES pH 7.4, 30 mM NaCl, 0.3 mM CHAPS, 20 mM phosphate pH 7.0, 320 mM KF, 0.08% BSA). After 2 hours incubation at room temperature, the fluorescence by FRET was measured at 665 and 620 nm by a SynergyH4 plate reader (Biotek). Illustrative results with the first bromodomain of Brd4 are shown below (Table 1). The binding inhibitory activity was shown by a decrease in 665 nm fluorescence relative to 620 nm. IC50 values were determined from a dose response curve.
# [2] = system: c-myc; assay: Inhibition of c-myc expression in cancer cell lines (mRNA, real-time PCR); format: cell-based; design: key: Active: Compounds with an IC50 value less than 30 μM were deemed to be active; conditions: Human AML MV4-11 cells, 3 hours
# Procedure: MV4-11 cells (2.5×10^4 cells) were plated in 96 well U-bottom plates with test compound or DMSO (0.1%), and incubated for 3 hours at 37° C. Cells were then harvested by centrifugation, lysed, and mRNA was isolated using the mRNA catcher plus kit (Invitrogen). Reverse transcription of the mRNA and duplex amplification of the c-myc and cyclophilin cDNAs was performed using the RNA Ultrasense kit (Invitrogen) and a ViiA7 real-time PCR machine (Applied Biosystems). IC50 values were determined from a dose response curve.
# [3] = system: Human AML MV-4-11 cells; assay: Inhibition of cell proliferation in cancer cell lines (CellTiter Aqueous One); format: cell-based; design: key: Active: Compounds with an IC50 value less than 30 μM were deemed to be active.; Not Active: Compounds with an IC50 value less than 30 μM were deemed to be active; conditions: 72 hours
# Procedure: MV4-11 cells: 96-well plates were seeded with 5×10^4 cells per well of exponentially growing human AML MV-4-11 (CRL-9591) cells and immediately treated with two-fold dilutions of test compounds, ranging from 30 μM to 0.2 μM. Triplicate wells were used for each concentration, as well as a media only and three DMSO control wells. The cells and compounds were incubated at 37° C., 5% CO2 for 72 hours before adding 20 μL of the CellTiter Aqueous One Solution (Promega) to each well and incubating at 37° C., 5% CO2 for an additional 3-4 hours. The absorbance was taken at 490 nm in a spectrophotometer and the percentage of proliferation relative to DMSO-treated cells was calculated after correction from the blank well. IC50 were calculated using the GraphPad Prism software.
# [4] = system: hIL-6 mRNA; assay: Inhibition of hIL-6 mRNA transcription in LPS-stimulated U937 macrophages; format: cell-based, human; design: key: Active: Compounds with an IC50 value less than 30 μM are deemed to be active; conditions: U937 differentiated into macrophages, 1 h pretreatment, lipopolysaccharide 3 h
# Procedure: In this example, hIL-6 mRNA in tissue culture cells was quantitated to measure the transcriptional inhibition of hIL-6 when treated with a compound of the present disclosure.
# A human leukemic monocyte lymphoma cell line (U937) was plated (3.2×10^4 cells per well) in a 96-well plate in 100 μL RPMI-1640 containing 10% FBS and penicillin/streptomycin, and differentiated into macrophages for 3 days in 60 ng/mL PMA ([…]) at 37° C. in 5% CO2 prior to the addition of the compound of interest. The cells were pretreated for 1 h with the test compound prior to stimulation with […] lipopolysaccharide from Escherichia coli. The cells were incubated at 37° C. for 3 h before the cells were harvested. At time of harvest, the spent media was removed from the cells and the cells were rinsed in 200 μL PBS. Cell lysis solution (70 μL) was added the cells in each well and incubated for 5-10 min at room temperature, to allow for complete cell lysis and detachment. mRNA was then prepared using the “mRNA Catcher PLUS plate” (Invitrogen), according to the protocol supplied. After the last wash, as much wash buffer as possible was aspirated without allowing the wells to dry. Elution buffer (E3, 70 μL) was then added to each well. mRNA was then eluted by incubating the mRNA Catcher PLUS plate with Elution Buffer for 5 min at 68° C. and then immediately placing the plate on ice.
# The eluted mRNA isolated was then used in a one-step quantitative real-time PCR reaction, using components of the Ultra Sense Kit together with Applied Biosystems primer-probe mixes. Real-time PCR data was analyzed, normalizing the Ct values for hIL-6 to an internal control, prior to determining the fold induction of each unknown sample, relative to the control.
# [5] = system: hApoA-1 mRNA; assay: Up-regulation of hApoA-1 mRNA transcription in Huh7 cells; format: cell-based, human; design: key: Active: Compounds with an EC170 value less than 30 μM are deemed to be active.; Not Active: Compounds with an EC170 value less than 30 μM are deemed to be active; conditions: 48 hrs treatment, ApoA-I mRNA
# Procedure: In this example, ApoA-I mRNA in tissue culture cells was quantitated to measure the transcriptional up-regulation of ApoA-I when treated with a compound of the present disclosure.
# Huh7 cells ([…] per well) were plated in a 96-well plate using 100 μL DMEM per well, (Gibco DMEM supplemented with penicillin/streptomycin and 10% FBS), 24 h before the addition of the compound of interest. After 48 hrs treatment, the spent media was removed from the Huh-7 cells and placed on ice (for immediate use) or at −80° C. (for future use) with the “LDH cytotoxicity assay Kit II” from Abcam. The cells remaining in the plate were rinsed with 100 μL PBS.
# Then 85 μL of cell lysis solution was added to each well and incubated for 5-10 minutes at room temperature, to allow for complete cell lysis and detachment. mRNA was then prepared using the “mRNA Catcher PLUS plate” from Life Technologies, according to the protocol supplied. After the last wash, as much wash buffer as possible was aspirated without allowing the wells to dry. Elution Buffer (E3, 80 μL) was then added to each well. mRNA was then eluted by incubating the mRNA Catcher PLUS plate with Elution Buffer for 5 minutes at 68° C., and then 1 minute at 4° C. Catcher plates with mRNA eluted were kept on ice for use or stored at −80° C.
# The eluted mRNA isolated was then used in a one-step real-time PCR reaction, using components of the Ultra Sense Kit together with Life Technologies primer-probe mixes. Real-time PCR data was analyzed, using the Ct values, to determine the fold induction of each unknown sample, relative to the control (that is, relative to the control for each independent DMSO concentration).
# Compounds with an EC170 value less than 30 μM are deemed to be active.
smiles,measurement,setting,value
"COc1cc(OC)c2c(=O)[nH]c(-c3ccc(OC4CN(C)C4)c(-c4ccc(C#N)cc4)c3)nc2c1 [Example 19, 5′-(5,7-Dimethoxy-4-oxo-3,4-dihydroquinazolin-2-yl)-2′-((1-methylazetidin-3-yl)oxy)-[1,1′-biphenyl]-4-carbonitrile]",FRET activity (IC50 < 30 μM),[1],Active
same,c-myc activity (IC50 < 30 μM),[2],Active
same,cell proliferation activity (IC50 < 30 μM),[3],Not Active
same,IL-6 activity (IC50 < 30 μM),[4],Active
same,ApoA-1 Activity (EC170 < 30 μM),[5],Active
"COc1cc(OC)c2c(=O)[nH]c(-c3ccc(OCCNC(C)C)c(-c4ccccc4)n3)nc2c1 [Example 22, 2-(5-(2-(Isopropylamino)ethoxy)-6-phenylpyridin-2-yl)-5,7-dimethoxyquinazolin-4(3H)-one]",FRET activity (IC50 < 30 μM),[1],Active
same,c-myc activity (IC50 < 30 μM),[2],Active
same,cell proliferation activity (IC50 < 30 μM),[3],Active
same,IL-6 activity (IC50 < 30 μM),[4],Active
same,melting point,,179 to 180 °C
"COc1cc(OC)c2c(=O)[nH]c(-c3ccc(OC)c(-c4ccc(S(C)(=O)=O)cc4)n3)nc2c1 [Example 58, 5,7-Dimethoxy-2-(5-methoxy-6-(4-(methylsulfonyl)phenyl)pyridin-2-yl)quinazolin-4(3H)-one]",FRET activity (IC50 < 30 μM),[1],Active
same,c-myc activity (IC50 < 30 μM),[2],Not Active
same,cell proliferation activity (IC50 < 30 μM),[3],Not Active
same,IL-6 activity (IC50 < 30 μM),[4],Active
same,melting point,,279 to 281 °C
"COc1cc(OC)c2c(=O)[nH]c(-c3ccc(OCCN4CCOCC4)c(-c4ccc(S(C)(=O)=O)cc4)n3)nc2c1.Cl [Example 31, 5,7-Dimethoxy-2-(6-(4-(methylsulfonyl)phenyl)-5-(2-morpholinoethoxy)pyridin-2-yl)quinazolin-4(3H)-one hydrochloride]",FRET activity (IC50 < 30 μM),[1],Active
same,c-myc activity (IC50 < 30 μM),[2],Active
same,cell proliferation activity (IC50 < 30 μM),[3],Not Active
same,IL-6 activity (IC50 < 30 μM),[4],Active
same,melting point,,226 to 228 °C
"COc1ccc2c(=O)[nH]c(-c3ccc(OCCO)c(-c4ccc([S+](C)[O-])cc4)n3)nc2c1 (centres unmarked) [Example 60, 2-(5-(2-Hydroxyethoxy)-6-(4-(methylsulfinyl)phenyl)pyridin-2-yl)-7-methoxyquinazolin-4(3H)-one]",FRET activity (IC50 < 30 μM),[1],Active
same,c-myc activity (IC50 < 30 μM),[2],Not Active
same,cell proliferation activity (IC50 < 30 μM),[3],Not Active
same,IL-6 activity (IC50 < 30 μM),[4],Not Active
same,melting point,,266 to 267 °C
"COc1cccc2nc(-c3ccc(OCCNC(C)C)c(-c4ccc(S(C)(=O)=O)cc4)n3)[nH]c(=O)c12 [Example 64, 2-(5-(2-(Isopropylamino)ethoxy)-6-(4-(methylsulfonyl)phenyl)pyridin-2-yl)-5-methoxyquinazolin-4(3H)-one]",FRET activity (IC50 < 30 μM),[1],Active
same,c-myc activity (IC50 < 30 μM),[2],Active
same,cell proliferation activity (IC50 < 30 μM),[3],Active
same,IL-6 activity (IC50 < 30 μM),[4],Active
same,melting point,,222 to 223 °C
"COc1cc(OC)c2c(=O)[nH]c(-c3ccc(OC)c(-c4ccc(C(=O)N(C)C)cc4C)n3)nc2c1 [Example 54, 4-(6-(5,7-Dimethoxy-4-oxo-3,4-dihydroquinazolin-2-yl)-3-methoxypyridin-2-yl)-N,N,3-trimethylbenzamide]",FRET activity (IC50 < 30 μM),[1],Active
same,c-myc activity (IC50 < 30 μM),[2],Not Active
same,cell proliferation activity (IC50 < 30 μM),[3],Not Active
same,IL-6 activity (IC50 < 30 μM),[4],Active
same,melting point,,248 to 251 °C
"COc1cc(OC)c2c(=O)[nH]c(-c3cc(-c4ccc([S+](C)[O-])cc4)c4[nH]ccc4c3)nc2c1 (centres unmarked) [Example 52, 5,7-Dimethoxy-2-(7-(4-(methylsulfinyl)phenyl)-1H-indol-5-yl)quinazolin-4(3H)-one]",FRET activity (IC50 < 30 μM),[1],Active
same,c-myc activity (IC50 < 30 μM),[2],Not Active
same,cell proliferation activity (IC50 < 30 μM),[3],Not Active
same,IL-6 activity (IC50 < 30 μM),[4],Active
same,melting point,,316 °C (dec.)
"COc1cc(OC)c2c(=O)[nH]c(-c3ccc(OC)c(-c4ccc(C(=O)N(C)C)cc4Cl)n3)nc2c1 [Example 56, 3-Chloro-4-(6-(5,7-dimethoxy-4-oxo-3,4-dihydroquinazolin-2-yl)-3-methoxypyridin-2-yl)-N,N-dimethylbenzamide]",FRET activity (IC50 < 30 μM),[1],Not Active
same,c-myc activity (IC50 < 30 μM),[2],Not Active
same,cell proliferation activity (IC50 < 30 μM),[3],Not Active
same,IL-6 activity (IC50 < 30 μM),[4],Active
same,melting point,,271 to 272 °C
"CCS(=O)(=O)c1ccc(-c2nc(-c3nc4cc(OC)cc(OC)c4c(=O)[nH]3)ccc2OCCNC(C)C)cc1 [Example 35, 2-(6-(4-(Ethylsulfonyl)phenyl)-5-(2-(isopropylamino)ethoxy)pyridin-2-yl)-5,7-dimethoxyquinazolin-4(3H)-one]",FRET activity (IC50 < 30 μM),[1],Active
same,c-myc activity (IC50 < 30 μM),[2],Active
same,cell proliferation activity (IC50 < 30 μM),[3],Active
same,IL-6 activity (IC50 < 30 μM),[4],Not Active
same,melting point,,195 to 197 °C
